Measured values taken from PubChem BioAssay AID1919016 (Molecular Pharmacology Branch, DTP, NCI, 2023).

Test system: NCI-H196 complex spheroid growth, percent test/control
Assay: Anticancer human tumor NCI-H196 cell line growth inhibition [AhR];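 also: seven days of drug exposure starting three days after plating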;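 as to viability, T/C: 100% = DMSO vehicle control wells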
Conditions: for IC50: curve of first compound; for viability, T/C: stronger effect = lower value
Excerpt: Multicellular complex tumor spheroid response to aryl hydrocarbon receptor antagonists in combination with a variety of drugs and investigational agents in selected tumor cell lines
The current study was undertaken to assess response to aryl hydrocarbon receptor antagonists in combination with standard-of-care drugs and investigational agents in solid tumor complex spheroid models. Complex spheroids include a stromal component modeled by human endothelial cells (HUVEC) and fibroblasts modeled by human mesenchymal stem cells (MSCs). The concentration ranges selected for each drug and investigational agent were based upon clinically achievable concentrations if the clinical Cmax of the agent was known.
Compounds. The drugs and investigational agents: BAY 2416964 (NSC825713), GNF351 (NSC835774), CH-223191 (NSC835775), CPI-455 (NSC825282), aza-TdCyd (NSC777586), decitabine (NSC127716), belinostat (NSC758774), entinostat (NSC756642), pevonedistat (NSC761192), tazemetostat (NSC777109), talazoparib (NSC765396), olaparib (NSC753686), selinexor (NSC780203), nedisertib (M3814, NSC802822), bortezomib (NSC756655), venetoclax (NSC766270), doxorubicin (NSC123127), elimusertib (BAY189344, NSC800525), ceralasertib (AZD6738, NSC777638), TAK-243 (NSC785004), alisertib (NSC759677), etoposide (NSC141540), topotecan (NSC609699), eribulin (NSC707389), gemcitabine (NSC613327), carboplatin (NSC241240), cisplatin (NSC119875), and SN-38 (NSC673596) were obtained from the National Cancer Institute (NCI) Developmental Therapeutics Program Chemical Repository (32). The FDA-approved anticancer drug set is available from the Developmental Therapeutics Program at https://dtp.cancer.gov/organization/dscb/obtaining/available plates.htm. […] The stock solutions were prepared in dimethyl sulfoxide (DMSO, Sigma-Aldrich, St. Louis, MO, cat. D2650), except for the platinum compounds which were prepared in saline (Quality Biological, Gaithersburg, MD, cat. 114-055-101), at 800-fold the tested concentration and stored at -70 degrees C prior to their use. All drugs and investigational agents were tested over a range starting from a high concentration at or near the clinical Cmax and decreasing in half-log increments. If the clinical Cmax for an agent had not been determined, the highest concentration tested was 10 microM (Table 1).
Cell Culture. All cells were maintained in an incubator at 37 degrees C and 5% CO2 with 95% humidity. The PDC lines were cultured according to standard operating procedures established by the NCI PDMR (https://pdmr.cancer.gov). Briefly, all PDCs were thawed and cultured in Matrigel-coated flasks prepared with a working solution of 1X Ham's F-12 nutrient mix, without supplementation (Invitrogen, Waltham, MA, cat. 11765054), 100 U/mL penicillin-streptomycin (Invitrogen, cat. 15140122), and 2.5% Matrigel (Corning Inc., Corning, NY, cat. 354248) for the first three passages. All PDCs were cultured in complete DMEM/F-12 media containing advanced DMEM/F-12 (Invitrogen, cat. 12634028), 4.9% defined fetal bovine serum, heat inactivated (HyClone Laboratories Inc., Logan, UT, cat. SH30070.03HI), 389 ng/mL hydrocortisone (Sigma-Aldrich, cat. H4001), 9.7 ng/mL human EGF recombinant protein (Invitrogen, cat. PHG0313), 23.4 microg/mL adenine (Sigma-Aldrich, cat. A2786), 97.3 U/mL penicillin-streptomycin (Invitrogen, cat. 15140122), 1.9 mM L-glutamine (Invitrogen, cat. 25030081), and 9.7 microM Y-27632 dihydrochloride (Tocris Bioscience, Bristol, United Kingdom, cat. 1254). The PDCs were cultured in complete DMEM/F12 media without 10 microM Y-27632 dihydrochloride for at least two passages prior to the screen. The established cell lines NCI-H1341 and […] were cultured in DMEM/F-12, HEPES (Invitrogen, cat. 11330032), 5% defined fetal bovine serum (HyClone Laboratories Inc., cat. SH30070.03), ITS premix universal culture supplement [insulin (5 microg/mL), transferrin (5 microg/mL), and selenious acid (5 ng/mL)] […]

[1] = second compound 0.1 µM, first compound 0.0316 µM
[2] = second compound 0.1 µM, first compound 0.1 µM
[3] = second compound 0.316 µM, first compound 0.0316 µM
[4] = second compound 0.316 µM, first compound 0.1 µM
[5] = second compound 1 µM, first compound 0.0316 µM
[6] = second compound 1 µM, first compound 0.1 µM
[7] = second compound 3.16 µM, first compound 0.0316 µM
[8] = second compound 3.16 µM, first compound 0.1 µM
[9] = second compound 10 µM, first compound 0.0316 µM
[10] = second compound 10 µM, first compound 0.1 µM
[11] = second compound 0.1 µM, first compound 0.316 µM
[12] = second compound 0.1 µM, first compound 1 µM
[13] = second compound 0.1 µM, first compound 3.16 µM
[14] = second compound 0.1 µM, first compound 10 µM
[15] = second compound 0.316 µM, first compound 0.316 µM
[16] = second compound 0.316 µM, first compound 1 µM
[17] = second compound 0.316 µM, first compound 3.16 µM
[18] = second compound 0.316 µM, first compound 10 µM
[19] = second compound 1 µM, first compound 0.316 µM
[20] = second compound 1 µM, first compound 1 µM
[21] = second compound 1 µM, first compound 3.16 µM
[22] = second compound 1 µM, first compound 10 µM
[23] = second compound 3.16 µM, first compound 0.316 µM
[24] = second compound 3.16 µM, first compound 1 µM
[25] = second compound 3.16 µM, first compound 3.16 µM
[26] = second compound 3.16 µM, first compound 10 µM
[27] = second compound 10 µM, first compound 0.316 µM
[28] = second compound 10 µM, first compound 1 µM
[29] = second compound 10 µM, first compound 3.16 µM
[30] = second compound 10 µM, first compound 10 µM

Row | SMILES | IC50 (second compound 0.1 µM) | IC50 (second compound 0.316 µM) | IC50 (second compound 1 µM) | IC50 (second compound 3.16 µM) | IC50 (second compound 10 µM) | viability, T/C [1] | viability, T/C [2] | viability, T/C [3] | viability, T/C [4] | viability, T/C [5] | viability, T/C [6] | viability, T/C [7] | viability, T/C [8] | viability, T/C [9] | viability, T/C [10] | viability, T/C [11] | viability, T/C [12] | viability, T/C [13] | viability, T/C [14] | viability, T/C [15] | further results
1 | CC[C@@]1(O)C(=O)OCc2c1cc1n(c2=O)Cc2cc3c(CN(C)C)c(O)ccc3nc2-1 + CC(CO)NC(=O)c1cc(-c2ccc(Cl)cc2)nn(-c2cnn(C)c2)c1=O | > 0.1 µM | > 0.1 µM | > 0.1 µM | > 0.1 µM | > 0.1 µM | 111% | 119% | 111% | 129% | 113% | 119% | 120% | 118% | 113% | 124% |  |  |  |  |  | viability, T/C (second compound 0.1 µM, first compound 0.000316 µM): 104%; viability, T/C (second compound 0.1 µM, first compound 0.001 µM): 101%; viability, T/C (second compound 0.1 µM, first compound 0.00316 µM): 97.8%; viability, T/C (second compound 0.1 µM, first compound 0.01 µM): 97%; viability, T/C (second compound 0.316 µM, first compound 0.000316 µM): 111%; viability, T/C (second compound 0.316 µM, first compound 0.001 µM): 110%; viability, T/C (second compound 0.316 µM, first compound 0.00316 µM): 105%; viability, T/C (second compound 0.316 µM, first compound 0.01 µM): 105%; viability, T/C (second compound 1 µM, first compound 0.000316 µM): 98.6%; viability, T/C (second compound 1 µM, first compound 0.001 µM): 108%; viability, T/C (second compound 1 µM, first compound 0.00316 µM): 116%; viability, T/C (second compound 1 µM, first compound 0.01 µM): 100%; viability, T/C (second compound 3.16 µM, first compound 0.000316 µM): 110%; viability, T/C (second compound 3.16 µM, first compound 0.001 µM): 111%; viability, T/C (second compound 3.16 µM, first compound 0.00316 µM): 114%; viability, T/C (second compound 3.16 µM, first compound 0.01 µM): 96.8%; viability, T/C (second compound 10 µM, first compound 0.000316 µM): 111%; viability, T/C (second compound 10 µM, first compound 0.001 µM): 112%; viability, T/C (second compound 10 µM, first compound 0.00316 µM): 116%; viability, T/C (second compound 10 µM, first compound 0.01 µM): 103%
2 | COc1cc(C2c3cc4c(cc3C(OC3OC5COC(C)OC5C(O)C3O)C3COC(=O)C23)OCO4)cc(OC)c1O (stereo not given) + CC(CO)NC(=O)c1cc(-c2ccc(Cl)cc2)nn(-c2cnn(C)c2)c1=O | > 10 µM | > 10 µM | > 10 µM | > 10 µM | > 10 µM | 113% | 116% | 109% | 118% | 117% | 106% | 103% | 110% | 126% | 128% | 101% | 112% | 104% | 101% | 102% | viability, T/C [16]: 104%; viability, T/C [17]: 109%; viability, T/C [18]: 94.9%; viability, T/C [19]: 119%; viability, T/C [20]: 106%; viability, T/C [21]: 110%; viability, T/C [22]: 105%; viability, T/C [23]: 119%; viability, T/C [24]: 110%; viability, T/C [25]: 117%; viability, T/C [26]: 97.9%; viability, T/C [27]: 114%; viability, T/C [28]: 109%; viability, T/C [29]: 115%; viability, T/C [30]: 95.6%
3 | Nc1ccn(C2OC(CO)C(O)C2(F)F)c(=O)n1 (stereo not given) + CC(CO)NC(=O)c1cc(-c2ccc(Cl)cc2)nn(-c2cnn(C)c2)c1=O | > 10 µM | > 10 µM | > 10 µM | > 10 µM | > 10 µM | 94% | 93.3% | 101% | 98% | 92.9% | 86.6% | 98.3% | 96.4% | 105% | 101% | 67.5% | 60.2% | 65.2% | 63.1% | 67.9% | viability, T/C [16]: 65.1%; viability, T/C [17]: 62%; viability, T/C [18]: 63.7%; viability, T/C [19]: 75.1%; viability, T/C [20]: 60.7%; viability, T/C [21]: 61.1%; viability, T/C [22]: 69.8%; viability, T/C [23]: 69.9%; viability, T/C [24]: 61.3%; viability, T/C [25]: 59.7%; viability, T/C [26]: 70.3%; viability, T/C [27]: 78%; viability, T/C [28]: 73.1%; viability, T/C [29]: 66.8%; viability, T/C [30]: 73.2%
